Data as given in paper PMC6275283, “Inhibitors of BMP‐1/tolloid‐like proteinases: efficacy, selectivity and cellular toxicity” (FEBS Open Bio, 2018).
Read-outs that look alike come from different tables or passages of the source.

Key:
Meprin α = biological target: T1, Meprin α (Homo sapiens, UniProt Q16819); assay: fluorogenic peptide cleavage assay; type: biochemical
T1 construct: gene MEP1A
T1 sequence (Q16819 66-712): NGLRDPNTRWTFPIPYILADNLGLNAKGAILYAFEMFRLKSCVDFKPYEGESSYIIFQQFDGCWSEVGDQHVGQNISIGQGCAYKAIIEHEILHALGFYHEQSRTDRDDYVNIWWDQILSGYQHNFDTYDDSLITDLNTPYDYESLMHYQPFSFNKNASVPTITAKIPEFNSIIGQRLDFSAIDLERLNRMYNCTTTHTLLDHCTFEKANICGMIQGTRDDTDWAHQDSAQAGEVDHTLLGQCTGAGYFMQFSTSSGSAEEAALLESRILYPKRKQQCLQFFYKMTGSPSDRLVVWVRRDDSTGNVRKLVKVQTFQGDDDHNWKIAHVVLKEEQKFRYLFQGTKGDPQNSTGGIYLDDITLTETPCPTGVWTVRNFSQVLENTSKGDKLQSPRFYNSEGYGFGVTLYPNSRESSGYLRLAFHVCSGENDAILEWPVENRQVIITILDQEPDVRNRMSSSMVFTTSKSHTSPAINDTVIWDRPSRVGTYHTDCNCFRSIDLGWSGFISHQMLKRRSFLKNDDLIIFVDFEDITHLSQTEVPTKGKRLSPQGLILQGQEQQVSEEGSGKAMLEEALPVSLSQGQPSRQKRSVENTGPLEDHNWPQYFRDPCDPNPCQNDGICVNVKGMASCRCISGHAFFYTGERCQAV
From the text: fluorogenic peptide cleavage assay on Meprin α

Meprin β = biological target: T2, Meprin β (Homo sapiens, UniProt Q16820); assay: fluorogenic peptide cleavage assay; type: biochemical
T2 construct: gene MEP1B
T2 sequence (Q16820 62-652): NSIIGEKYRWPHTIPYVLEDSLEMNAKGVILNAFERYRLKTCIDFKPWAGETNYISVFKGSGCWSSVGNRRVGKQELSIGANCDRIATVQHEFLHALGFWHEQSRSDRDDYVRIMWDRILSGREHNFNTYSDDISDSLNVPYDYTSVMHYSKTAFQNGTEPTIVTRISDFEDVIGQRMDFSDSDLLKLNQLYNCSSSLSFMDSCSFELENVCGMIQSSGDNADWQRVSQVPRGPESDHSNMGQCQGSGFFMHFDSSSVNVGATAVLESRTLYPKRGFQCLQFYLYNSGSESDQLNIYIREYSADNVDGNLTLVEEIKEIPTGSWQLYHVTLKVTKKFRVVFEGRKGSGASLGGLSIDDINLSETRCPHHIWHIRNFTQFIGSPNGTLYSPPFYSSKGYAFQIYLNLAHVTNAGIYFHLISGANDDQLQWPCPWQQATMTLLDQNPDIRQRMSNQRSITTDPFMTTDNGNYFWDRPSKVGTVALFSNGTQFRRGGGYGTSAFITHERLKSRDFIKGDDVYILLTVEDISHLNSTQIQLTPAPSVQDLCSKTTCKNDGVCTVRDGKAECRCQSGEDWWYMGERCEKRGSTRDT
From the text: fluorogenic peptide cleavage assay on Meprin β

[1] = […] Mca-YVADAPK-Dnp, […] enzyme, […] HEPES pH […] NaCl, […] CaCl2, […] °C

IC50 (Meprin α) [nM] | IC50 (Meprin β) [nM] | IC50 (Meprin α; [1]) [nM] | IC50 (Meprin β; [1]) [nM] | Compound
55 ± 11 | 744 ± 29 |  |  | CCCCC[C@H](CC(=O)NO)C(=O)N[C@H](C(=O)N1CCC[C@H]1CO)C(C)C [Actinonin]
185 ± 12 | > 10000 |  |  | CNC(=O)[C@H](Cc1c[nH]c2ccccc12)NC(=O)[C@@H](CC(=O)NO)CC(C)C [GM6001]
393 ± 82 | > 10000 |  |  | COc1ccc(CCN(CCC(=O)NO)S(=O)(=O)c2ccc(NC(=O)NCCc3ccccc3)cc2)cc1 [S33A]
 |  | > 1000 | > 10000 | FG‐2575
